Values quoted from earlier work as cited in patent EP4732851A9, “LINKER, ANTIBODY-DRUG CONJUGATE, AND PREPARATION METHOD THEREFOR” (Fudan University, priority 2024, dated 2025).

Settings: background statement; cited from earlier work

PNU-159682
activity compared to MMDX and doxorubicin: 3000 fold
